Assay results from US9409952B2, “Peptide-compound cyclization method” (Chugai Seiyaku Kabushiki Kaisha, priority 2011, dated 2016).
Where two headings read alike, the source gives them in different places. Starred links: 1 amine or outer side, 2 acyl side, 3 side chain; linkers in the order of their positions; H or OH if unused. Positions of bridges follow the written chain, without caps; N, C: chain ends. Non-standard residues stand in square brackets, D forms with d. Residues, ends and D or L forms follow the SMILES beside them. *: point of attachment. NMePhe(3-Cl) = CN[C@@H](Cc1cccc(Cl)c1)C(=O)O; NMeF = CN[C@@H](Cc1ccccc1)C(=O)O; NMeGABA = CN(CCCC(=O)[*:2])[*:1]; NMeI = CC[C@H](C)[C@H](NC)C(=O)O; NMeβAla = CN(CCC(=O)[*:2])[*:1]; NMeL = CN[C@@H](CC(C)C)C(=O)O; NMeV = CN[C@H](C(=O)O)C(C)C; NMeS = CN[C@@H](CO)C(=O)O; NMeA = CN[C@@H](C)C(=O)O; Piperidide = C1CCN(*)CC1; dNMeA = CN[C@H](C)C(=O)O; β3hA = C[C@H](N)CC(=O)O; Abu = CC[C@H](N)C(=O)O; Aib = CC(C)(N)C(=O)O; Sar = CNCC(=O)O; tBu = CC(C)(C)*

Legend:
[1] = PAMPA (parallel artificial membrane permeability assay); type: in vitro ADME; conditions: PAMPA
Method in brief: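 Artificial membrane was 10% (w/v) egg lecithin plus 0.5% (w/v) cholesterol in dodecane on a PVDF filter. A 10 mM DMSO stock was added at 0.5% (v/v) to donor buffer (50 mM MOPSO, pH 6.5, 5.0% glycocholic acid). After 18 h at 37 °C, LC/MS or LC/UV gave donor and acceptor levels for Pe.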

[2] = Metabolic stability in human hepatic microsome; type: in vitro ADME; conditions: microsomes
[3] = membrane permeation rate (Pe), 50 mM MOPSO buffer pH 6.5 with 5.0% glycocholic acid, 37° C., 18 hours, read-out: iPAMPA Pe
[4] = pH 7.4, human hepatic microsome, NADPH(+), read-out: CL NADPH(+)

SMILES | Papp at 18 hours, 50 µM [1, 3] [×10⁻⁶ cm/s] | microsomal CLint at 1 uM [2, 4] [µL/min/mg] | Papp at 18 hours, 50 µM ([1]; pH 6.5) [×10⁻⁶ cm/s] | microsomal CLint at 1 uM ([2]; human, pH 7.4, CL NADPH(+)) [µL/min/mg]
CC[C@H](C)[C@@H](C(=O)N[C@@H](Cc1ccccc1)C(=O)N1CCCCC1)N(C)C(=O)[C@@H]1CC(=O)N(C)[C@H](C)C(=O)N(C)[C@@H](CC(C)C)C(=O)N[C@@H](Cc2ccccc2)C(=O)N[C@@H]([C@@H](C)O)C(=O)N(C)CC(=O)N(C)[C@@H](C)C(=O)N(C)[C@@H](C(C)C)C(=O)N[C@@H](C)C(=O)N(C)[C@@H](CC(C)C)C(=O)N[C@@H](CC(C)C)C(=O)N1 [DP-583] ([dNMeA][NMeL]FT[Sar][NMeA][NMeV]A[NMeL]LD[NMeI]F-Piperidide; lactam N-11) | 25 | 27 |  | 
CC(C)C[C@H]1C(=O)N[C@@H](Cc2ccccc2)C(=O)N(C)[C@@H](C(C)C)C(=O)N[C@@H]([C@@H](C)O)C(=O)N(C)[C@@H](C)C(=O)NCC(=O)N(C)[C@@H](Cc2ccccc2)C(=O)N[C@H](C(=O)N(C)[C@@H](Cc2ccccc2)C(=O)N[C@@H](C)C(=O)N2CCCCC2)CC(=O)N(C)CCC(=O)N[C@@H](C(C)C)C(=O)N1C [DP-352] ([NMeβAla]V[NMeL]F[NMeV]T[NMeA]G[NMeF]D[NMeF]A-Piperidide; lactam N-10) | 25 | 66 |  | 
CC(C)C[C@H]1C(=O)N(C)[C@@H](C(C)C)C(=O)N[C@@H]([C@@H](C)O)C(=O)N(C)CC(=O)N(C)[C@@H](C)C(=O)N(C)[C@@H](C)C(=O)N[C@@H](C(C)C)C(=O)N[C@H](C(=O)N2CCCCC2)CC(=O)N(C)[C@H](C)C(=O)N(C)[C@@H](C)C(=O)N[C@@H](C)C(=O)N(C)[C@@H](Cc2ccccc2)C(=O)N1C [DP-319] ([dNMeA][NMeA]A[NMeF][NMeL][NMeV]T[Sar][NMeA][NMeA]VD-Piperidide; lactam N-12) | 1 | 12 |  | 
CC[C@H](C)[C@H]1C(=O)N[C@@H]([C@@H](C)O)C(=O)N[C@@H](CC(C)C)C(=O)N[C@H](C(=O)N2CCCCC2)CC(=O)N[C@H](C)C(=O)N(C)[C@@H](CC(C)C)C(=O)N(C)[C@@H](CC(C)C)C(=O)N(C)[C@@H](Cc2ccccc2)C(=O)N(C)[C@@H](CC(C)C)C(=O)N(C)[C@@H](Cc2ccccc2)C(=O)N[C@@H](C)C(=O)N1C [DP-228] ([dA][NMeL][NMeL][NMeF][NMeL][NMeF]A[NMeI]TLD-Piperidide; lactam N-11) | 5.2 | 28 |  | 
CC(C)C[C@@H]1NC(=O)[C@H]([C@@H](C)O)NC(=O)[C@H](CC(C)C)N(C)C(=O)[C@H](Cc2ccccc2)N(C)C(=O)CN(C)C(=O)[C@@H](C)NC(=O)C[C@@H](C(=O)N2CCCCC2)NC1=O [DP-742] ([dA][Sar][NMeF][NMeL]TLD-Piperidide; lactam N-7) | 15 | 175 |  | 
CC(C)C[C@H]1C(=O)N(C)[C@@H](Cc2ccccc2)C(=O)N[C@@H](Cc2ccccc2)C(=O)N(C)[C@@H](CC(C)C)C(=O)N[C@@H]([C@@H](C)O)C(=O)N(C)[C@@H](C)C(=O)N[C@H](C(=O)N2CCCCC2)CC(=O)N(C)[C@H](C)C(=O)N[C@@H](C)C(=O)N1C [DP-157] ([dNMeA]A[NMeL][NMeF]F[NMeL]T[NMeA]D-Piperidide; lactam N-9) | 27 | 368 |  | 
CC(C)C[C@@H]1NC(=O)[C@H](CC(C)C)N(C)C(=O)CNC(=O)[C@H](C(C)C)N(C)C(=O)[C@H](C)N(C)C(=O)[C@H]([C@@H](C)O)NC(=O)[C@H](C)N(C)C(=O)CCCN(C)C(=O)C[C@@H](C(=O)N(C)[C@@H](Cc2ccccc2)C(=O)N[C@@H](C)C(=O)N2CCCCC2)NC(=O)[C@H](Cc2ccccc2)NC(=O)[C@H](CC(C)C)N(C)C1=O [DP-365] ([NMeGABA][NMeA]T[NMeA][NMeV]G[NMeL]L[NMeL]FD[NMeF]A-Piperidide; lactam N-11) | 20 | 35 |  | 
CC(C)C[C@H]1C(=O)N(C)[C@@H](CC(C)C)C(=O)N[C@H](C(=O)N2CCCCC2)CC(=O)N(C)CCCC(=O)N(C)[C@@H](Cc2ccccc2)C(=O)N[C@@H]([C@@H](C)O)C(=O)N(C)[C@@H](C)C(=O)N[C@@H](COC(C)(C)C)C(=O)N1C [DP-685] ([NMeGABA][NMeF]T[NMeA]S(tBu)[NMeL][NMeL]D-Piperidide; lactam N-8) | 28 | 90 |  | 
CC(C)C[C@@H]1NC(=O)[C@H](CC(C)C)NC(=O)[C@H](C)N(C)C(=O)C[C@@H](C(=O)N2CCCCC2)NC(=O)[C@H](C(C)C)N(C)C(=O)[C@H](CC(C)C)NC(=O)[C@H](Cc2ccccc2)NC(=O)[C@H]([C@@H](C)O)NC(=O)CN(C)C(=O)[C@H](CC(C)C)NC(=O)C(C)(C)NC1=O [DP-560] ([NMeA]LL[Aib]L[Sar]TFL[NMeV]D-Piperidide; lactam N-11) | 26 | 28 |  | 
CC[C@H](C)[C@@H]1NC(=O)[C@H](CC(C)C)NC(=O)[C@H](Cc2ccccc2)NC(=O)CN(C)C(=O)[C@H](CC(C)C)NC(=O)[C@H](Cc2ccccc2)NC(=O)[C@@H](C)NC(=O)C[C@@H](C(=O)N2CCCCC2)NC(=O)[C@H]([C@@H](C)O)NC(=O)[C@H](Cc2ccccc2)NC1=O [DP-430] ([dA]FL[Sar]FLIFTD-Piperidide; lactam N-10) | 32 | 96 |  | 
CC(C)C[C@H]1C(=O)N(C)[C@@H](CC(C)C)C(=O)N(C)[C@@H](Cc2ccccc2)C(=O)N[C@H](C(=O)N2CCCCC2)CC(=O)N[C@@H](C(C)C)C(=O)N(C)CC(=O)N[C@@H]([C@@H](C)O)C(=O)N1C [DP-719] (V[Sar]T[NMeL][NMeL][NMeF]D-Piperidide; lactam N-7) | 26 | 218 |  | 
CC(C)C[C@H]1C(=O)N[C@H](C(=O)N2CCCCC2)CC(=O)N(C)[C@@H](C)C(=O)N(C)[C@@H](Cc2ccccc2)C(=O)N(C)[C@@H](C)C(=O)N[C@@H]([C@@H](C)O)C(=O)N(C)[C@@H](C)C(=O)N[C@@H](Cc2ccccc2)C(=O)N(C)[C@@H](C)C(=O)N[C@@H](C)C(=O)N(C)[C@@H](C)C(=O)N1C [DP-422] ([NMeA][NMeF][NMeA]T[NMeA]F[NMeA]A[NMeA][NMeL]D-Piperidide; lactam N-11) | 3.8 | 26 |  | 
CC[C@H](C)[C@H](NC(=O)[C@H](Cc1cccc(Cl)c1)N(C)C(=O)[C@H](CC(C)C)NC(=O)[C@H](C)N(C)C(=O)[C@H](CC(C)C)N(C)C(=O)[C@@H]1CC(=O)N[C@@H](Cc2ccccc2)C(=O)N(C)[C@@H](Cc2ccccc2)C(=O)N2CCC[C@H]2C(=O)N[C@@H](CC(C)C)C(=O)N(C)[C@@H](Cc2cccc(Cl)c2)C(=O)N[C@@H]([C@@H](C)O)C(=O)N[C@@H](CC(C)C)C(=O)N1)C(=O)N1CCCCC1 [DP-923] (F[NMeF]PL[NMePhe(3-Cl)]TLD[NMeL][NMeA]L[NMePhe(3-Cl)]I-Piperidide; lactam N-8) |  |  | 0.1 | 8
CC[C@@H]1NC(=O)[C@H](CC(C)C)N(C)C(=O)[C@H](CC(C)C)NC(=O)[C@H](CC(C)C)N(C)C(=O)CN(C)C(=O)C[C@H](C)NC(=O)[C@H](CO)N(C)C(=O)[C@H](CC(C)C)N(C)C(=O)[C@H](CC(C)C)N(C)C(=O)[C@H](CC(C)C)N(C)C(=O)[C@@H](CC(C)C)NC1=O [DP-641] (cyclo([Abu][dL][NMeL][NMeL][NMeL][NMeS][β3hA][Sar][NMeL]L[NMeL])) | 46 | 91 |  | 
CC[C@H](C)[C@@H]1NC(=O)[C@H](C)N(C)C(=O)[C@H](CC(C)C)N(C)C(=O)[C@@H](C(C)C)NC(=O)C[C@@H](C(=O)N(C)[C@@H](Cc2ccccc2)C(=O)N[C@@H](C)C(=O)N2CCCCC2)NC(=O)[C@H]([C@@H](C)O)NC(=O)[C@H](CC(C)C)N(C)C(=O)[C@H](Cc2ccccc2)N(C)C(=O)[C@H](CC(C)C)N(C)C(=O)[C@H](Cc2ccccc2)N(C)C1=O [DP-190] ([dV][NMeL][NMeA]I[NMeF][NMeL][NMeF][NMeL]TD[NMeF]A-Piperidide; lactam N-10) | 0.6 | 3 |  | 
CC[C@H](C)[C@H](NC(=O)[C@H](CC(C)C)N(C)C(=O)[C@@H]1CCCN1C(=O)[C@@H](NC(=O)[C@H](C)N(C)C(=O)[C@@H]1CC(=O)N[C@@H](C)C(=O)N(C)[C@@H](CC(C)C)C(=O)N(C)[C@@H](Cc2cccc(Cl)c2)C(=O)N[C@@H](C(C)C)C(=O)N(C)[C@@H](CC(C)C)C(=O)N(C)[C@@H](CC(C)C)C(=O)N[C@@H]([C@@H](C)O)C(=O)N[C@@H](Cc2ccccc2)C(=O)N1)C(C)C)C(=O)N1CCCCC1 [DP-936] (A[NMeL][NMePhe(3-Cl)]V[NMeL][NMeL]TFD[NMeA]VP[NMeL]I-Piperidide; lactam N-9) | 0.11 | 29 |  | 
CC(C)C[C@H]1C(=O)NCC(=O)N(C)[C@@H](C(C)C)C(=O)N[C@@H]([C@@H](C)O)C(=O)N[C@@H](Cc2ccccc2)C(=O)N[C@H](C(=O)N(C)[C@@H](Cc2ccccc2)C(=O)N(C)[C@@H](Cc2ccccc2)C(=O)N[C@@H](C)C(=O)N2CCCCC2)CC(=O)N(C)CCC(=O)N(C)[C@@H](C(C)C)C(=O)N[C@@H](C(C)C)C(=O)N(C)[C@@H](Cc2ccccc2)C(=O)N1C [DP-390] ([NMeβAla][NMeV]V[NMeF][NMeL]G[NMeV]TFD[NMeF][NMeF]A-Piperidide; lactam N-10) | 3.5 | 52 |  | 
CC(C)C[C@@H]1NC(=O)[C@H](CC(C)C)N(C)C(=O)[C@H](Cc2ccccc2)N(C)C(=O)[C@H]([C@@H](C)O)NC(=O)[C@H](CC(C)C)N(C)C(=O)CN(C)C(=O)CCCN(C)C(=O)C[C@@H](C(=O)N2CCCCC2)NC1=O [DP-713] ([NMeGABA][Sar][NMeL]T[NMeF][NMeL]LD-Piperidide; lactam N-8) | 27 | 169 |  | 
